Each structure is given as a SMILES string.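 Test compounds were applied to cells in 96-well plates for 48 hours at 5 doses. At the GI50, growth is halved. TGI: total growth inhibition.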 Where only a bound is given, the exact number is not on record here.

Test in all cases: growth of human tumour cells (NCI), 48 h
Test [1] has as its system SK-OV-3 ovarian.
The test system of test [2] is 786-0 renal.
The test system of test [3] is OVCAR-5 ovarian.
For test [4], the system named is RPMI-8226 leukemia.
Test [5] deals with RXF 393 renal.
In test [6] the test system is BT-549 breast.
Test [7] deals with CAKI-1 renal.

`COc1cccc(C2c3cc4c(cc3OC(N3CCCC3)C2C)OCO4)c1O` (centres undefined): the TGI is 35.2 µM in test [1]; greater than 100 µM in test [2]; greater than 100 µM in test [3]; 27.9 µM in test [4]; 17.4 µM in test [5]; greater than 43 µM in test [6]. Also, the TGI in test [7] turned out to be 68.3 µM.

Take `COc1cc(Nc2nc3ccccc3cc2C(=O)Nc2ccc(F)c(F)c2)cc(OC)c1OC`: the GI50 in test [1] was 2.65 µM; in test [2], 3.38 µM; in test [3] it was 4.29 µM; in test [4], 2.16 µM; in test [5], 2.73 µM; in test [6], 2.48 µM. Besides, in test [7], the GI50 was 2.72 µM. The TGI in test [1] was 7.8 µM; in test [2] it was greater than 100 µM; in test [3], greater than 100 µM; in test [4], 6.07 µM; in test [5] it was 7.98 µM; in test [6], 6.54 µM. The same compound displayed a TGI in test [7] greater than 100 µM.

For the compound `NC(=O)c1cccc(Nc2nccc(Nc3cccc4[nH]ncc34)n2)c1`, the GI50 in test [1] is 8.45 µM; in test [2], 10.8 µM; in test [3], 7.5 µM; in test [4] it was greater than 25 µM; in test [5], 4.43 µM; in test [6], 9.4 µM. Moreover, the GI50 in test [7] was 14.6 µM. For the same compound, the TGI is greater than 25 µM in test [1]; greater than 25 µM in test [2]; greater than 25 µM in test [3]; greater than 25 µM in test [4]; 16.3 µM in test [5]; greater than 25 µM in test [6]. Besides, the TGI in test [7] is greater than 25 µM.

For the compound `COC(=O)Cc1ccc(Oc2cnc3cc(F)c(F)cc3n2)cc1`, the GI50 in test [1] is greater than 100 µM; in test [2] it was greater than 100 µM; in test [3] it was greater than 100 µM; in test [4], 23.2 µM; in test [5] it was greater than 100 µM; in test [6] it was greater than 100 µM. Also, the GI50 in test [7] was greater than 100 µM. Besides, the TGI is greater than 100 µM in test [1]; greater than 100 µM in test [2]; greater than 100 µM in test [3]; 81 µM in test [4]; greater than 100 µM in test [5]; greater than 100 µM in test [6]. The TGI in test [7] is greater than 100 µM.

Consider `COc1cccc(NC(=O)c2sc3nc4c(cc3c2N)C(=O)CCC4)c1`, for which the GI50 in test [1] was 0.183 µM; in test [2], 0.366 µM; in test [3], 0.635 µM; in test [4], 0.332 µM; in test [5], 0.084 µM; in test [6] it was 0.282 µM. Moreover, the GI50 in test [7] is 0.882 µM. For the same compound, the TGI in test [1] is greater than 78.1 µM; in test [2] it was greater than 100 µM; in test [3] it was greater than 100 µM; in test [4] it was greater than 100 µM; in test [5] it was 1.51 µM; in test [6], greater than 90.5 µM. The compound also yielded a TGI in test [7] greater than 100 µM.

On to `N#CCN/C=C\C(=O)c1ccc(Cl)cc1`, for which the GI50 in test [1] is 34.7 µM; in test [2], 33.4 µM; in test [3], 37.6 µM; in test [4], 22.6 µM; in test [5], 40.8 µM; in test [7] it was 30.1 µM. The TGI in test [1] is greater than 100 µM; in test [2], greater than 100 µM; in test [3], 97.3 µM; in test [4] it was greater than 100 µM; in test [5] it was greater than 100 µM; in test [7], greater than 100 µM.

`COc1ccc(/C=N\Nc2ccc([N+](=O)[O-])cn2)cc1OC`: the GI50 is 3.48 µM in test [1]; 3.46 µM in test [2]; greater than 100 µM in test [3]; 3.65 µM in test [5]; greater than 100 µM in test [6]. For the same compound, the TGI in test [1] was 24.3 µM; in test [2] it was greater than 100 µM; in test [3], greater than 100 µM; in test [5] it was 16.7 µM; in test [6], greater than 100 µM.

Regarding `O=c1c(Cl)c(Cl)c(=O)c2sc3cc(Cl)ccc3[nH]c1=2`, the TGI was greater than 100 µM in test [1]; greater than 100 µM in test [2]; greater than 100 µM in test [3]; 17.2 µM in test [4]; greater than 100 µM in test [5]; greater than 100 µM in test [7].

As to `COc1cccc(/C=C/C(=O)c2ccc(Cl)cc2Cl)c1`, the GI50 is 12.8 µM in test [2]; 13.6 µM in test [3]; 1.1 µM in test [4]; 9.44 µM in test [5]; 11 µM in test [6]; 13.1 µM in test [7]. Besides, the TGI was 40.7 µM in test [2]; 43.7 µM in test [3]; 3.86 µM in test [4]; 20.5 µM in test [5]; 22.4 µM in test [6]; 29.6 µM in test [7].

Turning to `COc1cc(CNc2ccccc2C(=O)N2CCN(C(=O)c3cc(-c4cc(OC)c(OC)c(OC)c4)n4nc(-c5ccccc5)cc4n3)CC2)cc(OC)c1OC`, the GI50 in test [1] is 4.42 µM; in test [2], 4.49 µM; in test [3], 10.9 µM; in test [5], 2.32 µM; in test [6], 3.27 µM; in test [7], 1.39 µM. Further, the TGI in test [1] was 38.4 µM; in test [2], greater than 100 µM; in test [3], greater than 100 µM; in test [5] it was 7.54 µM; in test [6], 49.1 µM; in test [7] it was greater than 100 µM.

Take `O=Cc1cccc2c1Oc1c(cccc1C(=O)O)S2`: the TGI in test [1] is greater than 100 µM; in test [2] it was greater than 100 µM; in test [3], greater than 100 µM; in test [4], 63.3 µM; in test [6], greater than 100 µM; in test [7], greater than 100 µM.

Turning to `CC1(CCC(=O)OC2CCCCC2)OCCO1`, the TGI in test [1], in test [2], in test [3], in test [4], in test [5] and in test [7] was greater than 100 µM in each case.

For `COc1ccc(C(=O)c2cc3c(N)c(C(=O)Nc4ccc(C)cc4)sc3nc2C)cc1`, the GI50 in test [1] is 5.59 µM; in test [2], 4.48 µM; in test [3], 7.13 µM; in test [5], 2.48 µM; in test [6] it was 4.83 µM; in test [7], 2.35 µM. The TGI in test [1] is 33.1 µM; in test [2], 19.1 µM; in test [3], greater than 100 µM; in test [5], 9.38 µM; in test [6], 41.8 µM; in test [7] it was 20.4 µM.

The values above are taken from PubChem BioAssay (NCI).
